Measured values reported in ChEMBL document CHEMBL3091380, “Dibenzoyl and isoflavonoid glycosides from Sophora flavescens: inhibition of the cytotoxic effect of D-galactosamine on human hepatocyte HL-7702” (2013).

Assays:
L02 = assay: Hepatoprotective activity against D-galactosamine-induced toxicity in human HL-7702 cells assessed as survival rate at 1x10'-5 M by MTT assay relative to normal cell; type: functional; details: read-out: Survival
[1] = Hepatoprotective activity in human HL-7702 cells assessed as inhibition of D-galactosamine-induced toxicity at 1x10'-5 M by MTT assay relative to control; type: functional; details: L02

Structure (SMILES) | viability at 10 µM (L02) [%] | inhibition at 10 µM [1] [%]
COc1ccc(-c2coc3cc(O[C@@H]4O[C@H](CO[C@@H]5OC[C@](O)(CO)[C@H]5O)[C@@H](O)[C@H](O)[C@H]4O)ccc3c2=O)cc1O | 66.3 | 36.6
COc1cc(-c2coc3cc(O[C@@H]4O[C@H](CO[C@@H]5OC[C@@H](O)[C@H](O)[C@H]5O)[C@@H](O)[C@H](O)[C@H]4O)ccc3c2=O)ccc1O | 71.2 | 45.8
COc1ccc(-c2coc3cc(O[C@@H]4O[C@H](CO[C@@H]5OC[C@@H](O)[C@H](O)[C@H]5O)[C@@H](O)[C@H](O)[C@H]4O)ccc3c2=O)cc1O | 71.5 | 46.3
COc1ccc(C(=O)C(=O)c2ccc(O[C@@H]3O[C@H](CO[C@@H]4OC[C@@H](O)[C@H](O)[C@H]4O)[C@@H](O)[C@H](O)[C@H]3O)cc2O)cc1O | 61.3 | 27.1
COc1ccc(C(=O)C(=O)c2ccc(O[C@@H]3O[C@H](CO[C@@H]4OC[C@](O)(CO)[C@H]4O)[C@@H](O)[C@H](O)[C@H]3O)cc2O)cc1O | 74.7 | 52.4
COC(=O)c1cc(OC)c2c(c1-c1c(CO)cc(OC)c3c1OCO3)OCO2 [BICYCLOL] | 62.5 | 29.4
